How the values were obtained:
[1] = Inhibition of diazepam withdrawal symptoms in mice (black/white test box); format: in vivo, mice (male BKW); conditions: 0.1 mg/kg i.p.; FIG. 1
Description: (§1) The tests are tests for the effect of a substance on the abstinence symptoms induced by withdrawal of a drug of a substance of abuse in mice measured as the effect on some specific behavioral changes following to withdrawal of the drug or substance of abuse.
(§2) The test was conducted using an open-top experimental box (45*27*27 cm) two fifths of which was partitioned from the rest, painted black and illuminated with a dim red light (1×60 W, zero Lux). The remainder of the box was painted white and brightly illuminated (60 W, 400 Lux) with a white light source. The light sources were located 17 cm above the box and the base of the box was lined into 9 cm squares. Access between the two compartments was by means of a 7.5×7.5 cm opening located in floor level at the centre of the partition.
(§3) The mice were male BKW mice having weight of 25-30 g, housed in groups of 10 and given free acces to drink and food and kept on a dark/light cycle of 12 hours.
Diazepam (10 mg/kg) was given i.p. twice a day for 7 days and then withdrawn. […]
The test was carried out by taking the mice to a dimly illuminated room and then after 1 hour adaption to the new environment placing them in the centre of the white section of the test box. […] The following behavioural changes were measured: […]

[2] = Inhibition of nicotine withdrawal symptoms in mice (black/white test box); format: in vivo, mice (male BKW); conditions: 0.1 mg/kg i.p.; FIG. 2
Description: as §1, §2, §3
The test was carried out by taking the mice to a dimly illuminated room and then after 1 hour adaption to the new environment placing them in the centre of the white section of the test box. Behavioural changes were assed via remote video recording. The following behavioural changes were measured:
a) The time spent in the white and black section;
b) the number of explorative rearings in both the white and black section; […]

[3] = Catalepsy test in rats (s.c., vertical wire mesh); conditions: rat, maximum catalepsy within the first 6 hours
Description: Test compound is given s.c. in different doses. The rat (170-240 g) is placed on a vertical wire mesh (mesh diameter 12 mm). The rat is considered cataleptic if it remains immobile for more than 15 sec. The maximum number of rats showing catalepsy within the first 6 hours is recorded for each dose group. The results are recorded in fractions and an ED50 value is calculated by means of log-probit analysis. The results are shown in Table 1 (cf. Our Internat. Patent Application Publ. No. WO 92/00070).

Row | SMILES | Cataleptic activity ED50 (s.c.) [3] [µmol/kg] | further results
1 | O=C1NCCN1CCN1CCC(c2cn(-c3ccc(F)cc3)c3ccc(Cl)cc23)CC1 [Sertindole, 5-chloro-1-(4-fluorophenyl)-3-[1-[2-(2-imidazolidinon-1-yl)ethyl]-4-piperidyl]-1H-indole] |  | Inhibiting effect on the withdrawal behavioural changes, diazepam [1]: statistically significant inhibiting effect; Relieving effect on the symptoms following withdrawal of diazepam [1]: marked relieving effect; Inhibiting effect on the withdrawal behavioural changes, nicotine [2]: statistically significant inhibiting effect; Relieving effect on the symptoms following withdrawal of nicotine [2]: marked relieving effect
2 | CN1CCN(CCN2CCC(c3cn(-c4ccc(F)cc4)c4ccc(Cl)cc34)CC2)C1=O [Comp. No 3, 5-chloro-1-(4-fluorophenyl)-3-[1-[2-(3-methyl-2-imidazolidinon-1-yl)ethyl]-4-piperidyl]-1H-indole] | 31 | 
3 | O=C1NCCN1CCN1CC=C(c2cn(-c3ccc(F)cc3)c3ccc(Cl)cc23)CC1 [Comp. B, 5-Chloro-1-(4-fluorophenyl)-3-[1-[2-(2-imidazolidinon-1-yl)ethyl]-1,2,3,6-tetrahydro-4-pyridyl]-1H-indole, reference compound] | 2.2 | 
4 | O=C1NCCN1CCN1CC=C(c2cn(-c3ccc(F)cc3)c3ccc(C(F)(F)F)cc23)CC1 [Comp. A, 1-(4-Fluorophenyl)-3-[1-[2-(2-imidazolidinon-1-yl)ethyl]-1,2,3,6-tetrahydropyridin-4-yl]-5-trifluoromethyl-1H-indole, reference compound] | 0.49 | 
5 | O=C1CCCN1CCN1CCC(c2cn(-c3ccc(F)cc3)c3ccc(Cl)cc23)CC1 [Comp. No 4, 5-chloro-1-(4-fluorophenyl)-3-[1-[2-(2-pyrrolidinon-1-yl)ethyl]-4-piperidyl]-1H-indole] | 23 | 

From patent publication US5462948A, “Treatment of addiction to drugs and substances of abuse” (H. Lundbeck A/S, priority 1991, dated 1995)
